Data from patent US6403594B1, “Benzopyran derivatives” (Recordati, S.A. Chemical and Pharmaceutical Company, priority 1999, dated 2002).

What was measured:
[1] = molecular target: T1, α1b-adrenoceptor (recombinant) (Homo sapiens, UniProt P35368); assay: Radioligand binding, cloned α1b-adrenoceptor ([3H]prazosin); details: read-out: Affinity for recombinant α1b-adrenoceptor, cloned receptors (Ki)
T1 construct: expressed in transfected cells
T1 sequence (P35368 1-520): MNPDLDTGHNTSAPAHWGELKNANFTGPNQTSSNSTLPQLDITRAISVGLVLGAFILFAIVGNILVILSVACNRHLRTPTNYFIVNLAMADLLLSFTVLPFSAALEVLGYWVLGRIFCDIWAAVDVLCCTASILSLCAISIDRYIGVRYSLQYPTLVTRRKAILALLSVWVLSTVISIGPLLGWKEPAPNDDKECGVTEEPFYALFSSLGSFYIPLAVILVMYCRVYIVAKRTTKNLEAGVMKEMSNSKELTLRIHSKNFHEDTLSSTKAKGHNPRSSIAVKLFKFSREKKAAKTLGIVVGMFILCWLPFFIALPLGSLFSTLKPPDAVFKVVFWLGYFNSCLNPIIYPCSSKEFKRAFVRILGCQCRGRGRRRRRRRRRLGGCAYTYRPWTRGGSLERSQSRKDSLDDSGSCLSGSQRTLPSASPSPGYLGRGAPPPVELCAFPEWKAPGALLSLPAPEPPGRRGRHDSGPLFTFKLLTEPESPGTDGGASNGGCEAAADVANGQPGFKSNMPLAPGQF

[2] = tested on: prostatic urethral pressure increase induced by noradrenaline; assay: Inhibition of urethral contractions induced by noradrenaline in anaesthetised dogs after i.v. administration; format: in vivo, dog; details: for UC ID50: active dose inhibiting by 50% the urethral contractions induced by noradrenaline: i.v. administration; for DBP/UC ratio between the active doses: i.v., DBP ED25 / UC ID50
Procedure: (§1) The experiments were performed according to the method of Imagawa J. et al., J. Pharmacol. Methods 22: 103-111, 1989, with substantial modifications, as follows: adult male beagle dogs, weighing 8-10 kg, were anaesthetised with pentobarbital sodium (30 mg/kg i.v. and 2 mg/kg/h i.v.), intubated and spontaneously ventilated with room air. In order to monitor systemic blood pressure (BP), a polyethylene (PE) catheter was introduced into the aortic arch through the left femoral artery. A collateral of the left femoral vein was cannulated for infusion of anaesthetic, and the right femoral vein was cannulated for administration of compounds. For intra-arterial (i.a.) injection of noradrenaline (NA), a PE catheter was introduced into the lower portion of the abdominal aorta via the right external iliac artery. Through such procedure, NA was selectively distributed to the lower urinary tract. A paramedian vertical suprapubic incision extending from the base of the pelvis to the mid-abdominal region was made and the bladder and prostate were exposed. The bladder was manually emptied with a syringe. Prostatic urethral pressure was monitored with a Mikro-tip catheter (5F) introduced into the bladder via the external urethral meatus, and withdrawn until the pressure transducer was positioned in the prostatic region of the urethra. A ligature was secured between the neck of the bladder and urethra to isolate the response of the latter and to avoid any interaction with the bladder. Another ligature was put around the Mikro-tip catheter at the external meatus, to secure the catheter itself. After a stabilising period following the surgical procedure (30 minutes), in which arterial and prostatic urethral pressure were continuously monitored as basal values, i.a. administration of NA was made at intervals of 20 minutes. The doses of NA chosen were such to produce an increase of at least 100% in urethral pressure. The test compounds were administered i.v. in a cumulative manner with intervals of 15-20 minutes between administrations. I.a. injections of NA were repeated 5 minutes after every dosing of test compound with intervals of about 10 minutes between stimulations. In order to compare the effects of the administered compound, dose/response curves (log dose transformation) were constructed by computing, at the peak effect, the percent decrease in diastolic blood pressure and the percent inhibition of the increase in urethral pressure induced by NA.

diastolic blood pressure = assay: Lowering of diastolic blood pressure in anaesthetised dogs after i.v. administration; format: in vivo, dog
Procedure: as §1

[3] = molecular target: T2, α1a-adrenoceptor (recombinant) (Homo sapiens, UniProt P35348); assay: Radioligand binding, cloned α1a-adrenoceptor ([3H]prazosin); details: read-out: Affinity for recombinant α1a-adrenoceptor, cloned receptors (Ki)
T2 construct: expressed in transfected cells
T2 sequence (P35348 1-466): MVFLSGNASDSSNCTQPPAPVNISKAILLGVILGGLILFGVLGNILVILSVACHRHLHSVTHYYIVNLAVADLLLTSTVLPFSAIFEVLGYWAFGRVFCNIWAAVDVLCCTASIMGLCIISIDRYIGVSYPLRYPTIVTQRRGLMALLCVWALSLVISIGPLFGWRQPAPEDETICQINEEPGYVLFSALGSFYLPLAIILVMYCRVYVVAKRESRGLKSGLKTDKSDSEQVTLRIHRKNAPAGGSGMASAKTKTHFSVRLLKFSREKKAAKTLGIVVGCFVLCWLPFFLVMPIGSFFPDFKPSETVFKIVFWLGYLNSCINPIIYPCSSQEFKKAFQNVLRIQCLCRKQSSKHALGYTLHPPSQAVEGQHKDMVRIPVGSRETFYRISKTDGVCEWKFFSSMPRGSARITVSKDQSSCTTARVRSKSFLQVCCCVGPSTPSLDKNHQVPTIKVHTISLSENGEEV

In the case of COc1ccc(Cl)cc1N1CCN(CCCNC(=O)c2cccc3c(=O)c(C)c(C(N)=O)oc23)CC1 [Example 1, 2-Carbamoyl-8-{3-[4-(5-chloro-2-methoxyphenyl)-1-piperazinyl]-propylcarbamoyl}-3-methyl-4-oxo-4H-1-benzopyran], the Ki [1] is reported as 2.62 nM, the “UC ID50: active dose inhibiting by 50% the urethral contractions induced by noradrenaline” value [2] is reported as 0.0118 mg/kg and the “DBP/UC ratio between the active doses” value [2] is reported as 234.7. For the same molecule, the “DBP ED25: active dose lowering diastolic blood pressure by 25%” value (diastolic blood pressure) was 2.769 mg/kg and the Ki [3] was 2.4 nM.
For CCOC(=O)c1oc2c(C(=O)NCCCN3CCN(c4cc(Cl)ccc4OC)CC3)cccc2c(=O)c1C [Example 4, 2-Ethoxycarbonyl-8-{3-[4-(5-chloro-2-methoxyphenyl)-1-piperazinyl]-propylcarbamoyl}-3-methyl-4-oxo-4H-1-benzopyran], the Ki [1] was 0.08 nM, the “UC ID50: active dose inhibiting by 50% the urethral contractions induced by noradrenaline” value [2] was 0.0023 mg/kg and the “DBP/UC ratio between the active doses” value [2] was 71.0. For the same molecule, the “DBP ED25: active dose lowering diastolic blood pressure by 25%” value (diastolic blood pressure) was 0.1633 mg/kg and the Ki [3] was 0.21 nM.
